Measured values taken from ChEMBL document CHEMBL3091383, “Sorbicillamines A-E, nitrogen-containing sorbicillinoids from the deep-sea-derived fungus Penicillium sp. F23-2” (J Nat Prod, 2013).

How the values were obtained:
[1] = Cytotoxicity against human Bel7402 cells by MTT assay; type: functional, cell-based; conditions: Bel-7402
HEK293 = assay: Cytotoxicity against HEK293 cells by MTT assay; type: cell-based; conditions: Homo sapiens
HCT-116 = assay: Cytotoxicity against human HCT116 cells by MTT assay; type: functional, cell-based
P388 = assay: Cytotoxicity against mouse P388 cells by SRB assay; type: functional, cell-based
HeLa = assay: Cytotoxicity against human HeLa cells by MTT assay; type: functional, cell-based

Measured: IC50

C/C=C/C=C/C(=O)C1=C(N)[C@](C)(O)[C@]2(O)O[C@]3(C)C(O)=C(C)C(=O)/C(=C(O)/C=C/C=C/C)[C@@H]3[C@]2(C)C1=O
> 10 µM: [1] | HEK293 | HCT-116 | P388 | HeLa

C/C=C/C=C/C(O)=C1\C(=O)[C@]2(C)C(=O)C(C)(O)[C@H]1[C@H](C(=O)C1=C(N)[C@](C)(O)[C@]3(O)O[C@]4(C)C(O)=C(C)C(=O)\C(=C(O)/C=C/C=C/C)[C@@H]4[C@]3(C)C1=O)[C@H]2/C=C/C (stereo not given in full)
> 10 µM: [1] | HEK293 | HCT-116 | P388 | HeLa

C/C=C/C=C/C(=O)C1=C(O)[C@]2(C)C(=O)[C@@](C)(O)[C@H]1N1CCC[C@@H]12
> 10 µM: [1] | HEK293 | HCT-116 | P388 | HeLa

C/C=C/C=C/C(O)=C1/C(=O)C(C)=C(O)[C@@]2(C)O[C@@]3(O)[C@@](C)(O)C4=C(C(=O)C[C@@H](/C=C/C)N4)C(=O)[C@@]3(C)[C@@H]12
> 10 µM: [1] | HEK293 | HCT-116 | P388 | HeLa

C/C=C/C=C/C(O)=C1/C(=O)C(C)=C(O)[C@@]2(C)O[C@@]3(O)[C@@](C)(O)C4=C(C(=O)C[C@H](/C=C/C)N4)C(=O)[C@@]3(C)[C@@H]12
> 10 µM: [1] | HEK293 | HCT-116 | P388 | HeLa
